From patent publication US20230203029A1 (priority 2020, published 2023)

What was measured:
[1] = biological target: T1, Ba/F3 Pro B-cell line expressing TEL-human MERTK fusion domain (Homo sapiens, UniProt Q12866); format: cell-based; details: cell survival, 48 h, CellTiter-Glo; read-out: TEL-MERTK Ba/F3 IC50
T1 sequence (Q12866 587-858 limits assumed): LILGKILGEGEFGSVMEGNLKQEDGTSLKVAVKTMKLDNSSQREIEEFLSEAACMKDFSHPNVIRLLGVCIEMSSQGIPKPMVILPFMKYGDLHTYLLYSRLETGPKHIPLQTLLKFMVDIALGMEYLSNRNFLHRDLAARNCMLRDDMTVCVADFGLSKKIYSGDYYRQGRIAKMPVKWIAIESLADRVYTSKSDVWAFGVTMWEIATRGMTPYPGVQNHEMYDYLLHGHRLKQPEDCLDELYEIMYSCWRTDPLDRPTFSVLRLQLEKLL
Description: (§1) Assay 5—Ba/F3 Cell Survival Assays.
(§2) The inhibitory potencies of compounds were assessed in a Ba/F3 cell survival assay, using the Ba/F3 Pro B-cell line, recombinantly expressing a BCR-human AXL kinase domain fusion protein (pACD320/AXL, Advanced Cellular Dynamics Inc), TEL-human MERTK fusion domain (pACD1000/MERTK, Advanced Cellular Dynamics Inc), TEL-human Tyro3 fusion domain (pACD1000/TYRO3, Advanced Cellular Dynamics Inc), or control TEL-none (ACD320, Advanced Cellular Dynamics Inc) BRC-none constructs (ACD1000, Advanced Cellular Dynamics Inc). 10 ng/mL recombinant murine IL3 (R&D, 403-ML-010) was included in the media when propagating negative control TEL-none or BCR-none lines only. […] The final assay DMSO concentration was 0.25%. Compound incubations were conducted for 48 h at 37° C./5% CO2, after which cell plate was equilibrated at room temperature for 20 minutes prior to assessing viability. 15 μl of Promega CellTiter-Glo reagent (G7572) was added to each well for 2 min on an orbital shaker to induce cell lysis.
(§3) The plate was then equilibrated for 5 min at room temperature and luminescence read on a BMG Pherastar FSX using the LUM plus optic module. […] Competition curves were then fit to a 4 parameter logistic equation including a variable slope factor to determine the IC50 (compound concentration causing a half-maximal inhibition of cell survival).

[2] = biological target: T2, human MERTK cytoplasmic domain (Homo sapiens, UniProt Q12866); assay: biochemical; details: 30 uM ATP; read-out: Assay 1a Mer IC50 30 uM ATP
T2 construct: human MERTK cytoplasmic domain (Carna Biosciences 08-108); purchased Carna Biosciences 08-108
Description: Assay 1a—MERTK HTRF KinEASE-TK Assay
The enzymatic reaction was carried out for 30 min at room temperature. 10 μL TK Antibody-Cryptate/Streptavidin-XL665 (Cisbio 610SAXLG) was then added for 60 min, including EDTA containing detection buffer (Cisbio 62SDBRDF) to stop the reaction.

[3] = biological target: T3, Ba/F3 Pro B-cell line expressing BCR-human AXL kinase domain fusion protein (Homo sapiens, UniProt P30530); assay: Assay 5 Ba/F3 cell survival assay, BCR-Axl; format: cell-based; details: read-out: BCR-Axl Ba/F3 IC50, 48 h, CellTiter-Glo
T3 construct: P11274 (Breakpoint cluster region protein)
T3 sequence (P30530 536-807 limits assumed): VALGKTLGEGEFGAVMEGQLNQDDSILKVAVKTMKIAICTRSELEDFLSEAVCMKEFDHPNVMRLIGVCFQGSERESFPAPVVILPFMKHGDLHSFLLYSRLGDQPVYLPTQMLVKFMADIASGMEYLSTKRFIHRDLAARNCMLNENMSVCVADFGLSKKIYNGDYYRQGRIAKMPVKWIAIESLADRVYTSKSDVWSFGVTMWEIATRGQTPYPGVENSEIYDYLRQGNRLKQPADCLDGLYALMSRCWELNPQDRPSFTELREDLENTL
Description: as §1, §2, §3

[4] = biological target: T4, human AXL cytoplasmic domain (Homo sapiens, UniProt P30530); assay: Assay 1b AXL HTRF KinEASE-TK assay; format: biochemical
T4 construct: human AXL cytoplasmic domain (Thermo Fisher A31515); purchased Thermo Fisher A31515
T4 sequence (P30530 473-894 limits assumed): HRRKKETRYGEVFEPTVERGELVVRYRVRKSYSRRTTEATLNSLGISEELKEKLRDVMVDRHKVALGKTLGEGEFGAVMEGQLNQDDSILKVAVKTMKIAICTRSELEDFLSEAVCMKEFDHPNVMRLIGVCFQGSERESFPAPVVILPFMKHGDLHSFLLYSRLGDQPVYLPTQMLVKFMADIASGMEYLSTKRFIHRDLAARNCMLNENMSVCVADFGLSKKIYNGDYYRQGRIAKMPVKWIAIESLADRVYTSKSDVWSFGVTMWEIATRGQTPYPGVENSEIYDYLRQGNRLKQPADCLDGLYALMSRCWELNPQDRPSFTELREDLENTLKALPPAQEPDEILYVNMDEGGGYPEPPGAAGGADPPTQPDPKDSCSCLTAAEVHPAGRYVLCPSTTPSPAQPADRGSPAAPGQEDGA
Description: Assay 1b—AXL HTRF KinEASE-TK Assay
Compound inhibition of human AXL cytoplasmic domain (Thermo Fisher A31515) enzymatic activity was tested via the HTRF KinEASE-tyrosine kinase (TK) kit (Cisbio 62TK0PEC). Experiments were performed in 20 μl enzymatic buffer (Cisbio 62EZBFDD) supplemented with 5 mM MgCl2, 1 mM MnCl2, 1 mM DTT, 50 nM SEB (Cisbio, 61SEBALB), with 5 nM of AXL and the test compounds of interest. […] The enzymatic reaction was carried out for 30 min at room temperature. 10 μL TK Antibody-Cryptate/Streptavidin-XL665 (Cisbio 610SAXLG) was then added for 60 min, including EDTA containing detection buffer (Cisbio 62SDBRDF) to stop the reaction. The plate was read on a BMG Pherastar FSX using a HTRF 337/620/665 optical module to excite the terbium donor at 337 nm, and record donor emission at 620 nm and acceptor fluorophore emission at 665 nm. From this the FRET ratio (acceptor 665 nm/donor 620 nm) for each data point was calculated. […] Competition curves were then fit to a 4 parameter logistic equation including a variable slope factor to determine the IC50 (compound concentration that inhibits 50% of AXL activity).

[5] = biological target: T5, Ba/F3 Pro B-cell line expressing TEL-human Tyro3 fusion domain (Homo sapiens, UniProt Q06418); format: cell-based; details: cell survival, 48 h, CellTiter-Glo
T5 sequence (Q06418 518-790 limits assumed): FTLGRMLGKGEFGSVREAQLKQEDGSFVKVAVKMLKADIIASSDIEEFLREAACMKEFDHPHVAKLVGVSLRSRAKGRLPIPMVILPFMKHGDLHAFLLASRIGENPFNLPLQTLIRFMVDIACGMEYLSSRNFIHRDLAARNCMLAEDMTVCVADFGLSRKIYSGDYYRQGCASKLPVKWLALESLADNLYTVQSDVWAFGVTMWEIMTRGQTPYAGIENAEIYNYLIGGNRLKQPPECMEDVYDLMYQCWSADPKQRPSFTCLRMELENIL
Description: as §1
as §2, with “only. Cells were maintained in RMPI 1640 (Corning 15-040-CV) culture media containing 10% heat inactivated semi-synthetic FBS (RMBIO FGR-BBT), 2 mM L-Glutamine (Sigma, G7513), 100 IU/mL Penicillin-[…] Streptomycin (Sigma, P4333), and 500 ng/mL Puromycin (Sigma, P8833). Experiments were performed in 50 μl growth media, including the test compounds of interest, and dispensing 5000 cells/well in logarithmic-phase growth into a 384 well white Optiplate (Perkin Elmer 6007299).” for “only.”
The plate was then equilibrated for 5 min at room temperature and luminescence read on a BMG Pherastar FSX using the LUM plus optic module. Data were normalised to measurements in the absence of competing compound (0% inhibition). Competition curves were then fit to a 4 parameter logistic equation including a variable slope factor to determine the IC50 (compound concentration causing a half-maximal inhibition of cell survival).

T2 sequence (Q12866 527-999): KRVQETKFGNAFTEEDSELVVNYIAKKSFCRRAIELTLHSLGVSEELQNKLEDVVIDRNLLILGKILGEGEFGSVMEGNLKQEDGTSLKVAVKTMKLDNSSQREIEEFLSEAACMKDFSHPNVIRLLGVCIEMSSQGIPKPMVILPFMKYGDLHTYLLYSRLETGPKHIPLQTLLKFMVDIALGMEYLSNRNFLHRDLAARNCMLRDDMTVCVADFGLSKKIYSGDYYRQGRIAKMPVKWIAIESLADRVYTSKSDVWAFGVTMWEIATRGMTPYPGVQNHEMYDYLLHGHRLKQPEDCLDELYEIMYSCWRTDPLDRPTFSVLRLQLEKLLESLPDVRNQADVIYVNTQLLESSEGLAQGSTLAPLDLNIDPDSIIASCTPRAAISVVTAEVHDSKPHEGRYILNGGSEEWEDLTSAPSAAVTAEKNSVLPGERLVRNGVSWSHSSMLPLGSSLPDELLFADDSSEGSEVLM

Row | IC50 [2] | IC50 [4] | SMILES | IC50 [1] | IC50 [3] | IC50 [5]
1 | 0.004 µM | 0.077 µM | CN1CCC(NC(=O)c2cc3c(Oc4ccc(NC(=O)c5cccn(-c6ccc(F)cc6)c5=O)nc4)ccnc3cn2)CC1 [Example 11, 4-[[6-[[1-(4-fluorophenyl)-2-oxo-pyridine-3-carbonyl]amino]-3-pyridyl]oxy]-N-(1-methyl-4-piperidyl)-1,7-naphthyridine-6-carboxamide] | 0.052 µM | 0.032 µM | 0.251 µM
2 | 0.029 µM | 0.076 µM | Cc1cc(NC(=O)c2cccn(-c3ccc(F)cc3)c2=O)ncc1Oc1ccnc2cnc(C(=O)NC3CCN(C)CC3)cc12 [Example 25, 4-[[6-[[1-(4-fluorophenyl)-2-oxo-pyridine-3-carbonyl]amino]-4-methyl-3-pyridyl]oxy]-N-(1-methyl-4-piperidyl)-1,7-naphthyridine-6-carboxamide] | 0.054 µM | 0.027 µM | 0.091 µM
3 | 0.014 µM |  | CC(C)n1cc(C(=O)Nc2ccc(Oc3ccnc4cnc(C(=O)N[C@H]5CCN(C)C5)cc34)cn2)c(=O)n(-c2ccc(F)cc2)c1=O [Example 27.4, 4-[[6-[[3-(4-fluorophenyl)-1-isopropyl-2,4-dioxo-pyrimidine-5-carbonyl]amino]-3-pyridyl]oxy]-N-[(3S)-1-methylpyrrolidin-3-yl]-1,7-naphthyridine-6-carboxamide] | 0.044 µM | 0.014 µM | 0.377 µM
4 | 0.019 µM | 0.36 µM | Cc1nc(NC(=O)c2cccn(-c3ccc(F)cc3)c2=O)ccc1Oc1ccnc2cnc(C(=O)NC3CCN(C)CC3)cc12 [Example 26, 4-[[6-[[1-(4-fluorophenyl)-2-oxo-pyridine-3-carbonyl]amino]-2-methyl-3-pyridyl]oxy]-N-(1-methyl-4-piperidyl)-1,7-naphthyridine-6-carboxamide] | 0.055 µM | 0.083 µM | 1.42 µM
5 | 0.019 µM | 0.264 µM | CN1CCC(c2cc3c(Oc4ccc(NC(=O)c5cccn(-c6ccc(F)cc6)c5=O)nc4)ccnc3cn2)CC1 [Example 16, 1-(4-Fluorophenyl)-N-[5-[[6-(1-methyl-4-piperidyl)-1,7-naphthyridin-4-yl]oxy]-2-pyridyl]-2-oxo-pyridine-3-carboxamide] | 0.014 µM | 0.022 µM | 0.931 µM
6 | 0.004 µM | 0.028 µM | CN1CCC(NC(=O)c2cc3c(Oc4ccc(NC(=O)c5cccn(-c6ccc(F)cc6)c5=O)cc4)ccnc3cn2)CC1 [Example 8.1, 4-[4-[[1-(4-fluorophenyl)-2-oxo-pyridine-3-carbonyl]amino]phenoxy]-N-(1-methyl-4-piperidyl)-1,7-naphthyridine-6-carboxamide] | 0.017 µM | 0.007 µM | 0.048 µM
7 | 0.001 µM | 0.01 µM | CN1CCC(C(=O)Nc2cc3c(Oc4ccc(NC(=O)c5cccn(-c6ccc(F)cc6)c5=O)nc4)ccnc3cn2)CC1 [Example 18.1, 1-(4-fluorophenyl)-N-[5-[[6-[(1-methylpiperidine-4-carbonyl)amino]-1,7-naphthyridin-4-yl]oxy]-2-pyridyl]-2-oxo-pyridine-3-carboxamide] | 0.013 µM |  | 0.25 µM
8 | 0.006 µM | 0.014 µM | CN1CCN(c2cc3c(Oc4ccc(NC(=O)c5cccn(-c6ccc(F)cc6)c5=O)nc4)ccnc3cn2)CC1 [Example 10.1, 1-(4-fluorophenyl)-N-[5-[[6-(4-methylpiperazin-1-yl)-1,7-naphthyridin-4-yl]oxy]-2-pyridyl]-2-oxo-pyridine-3-carboxamide] | 0.016 µM |  | 0.119 µM
9 | 0.003 µM | 0.012 µM | CC(C)n1cc(C(=O)Nc2ccc(Oc3ccnc4cnc(C5CCN(C)CC5)cc34)cn2)c(=O)c(-c2ccc(F)cc2)c1 [Example 23, 5-(4-fluorophenyl)-1-isopropyl-N-[5-[[6-(1-methyl-4-piperidyl)-1,7-naphthyridin-4-yl]oxy]-2-pyridyl]-4-oxo-pyridine-3-carboxamide] | 0.002 µM |  | 0.429 µM
